One data set has as its system HCT-116. In words: Antiproliferative activity against human HCT116 cells harboring PI3CA H1047R mutant after 72 hrs by MTT assay. The settings on record: HCT-116, 72 h. The data set is classed as functional, cell-based. (Formazan colour is commonly taken as a measure of viable cells.)
For a further data set, the system named is MCF7. In words: Antiproliferative activity against human MCF7 cells harboring PI3CA E545K mutant after 72 hrs by MTT assay. It is filed as functional, cell-based. Particulars: MCF7, 72 h.
In data set [1] the target is Phosphatidylinositol 4,5-bisphosphate 3-kinase catalytic subunit alpha isoform (Homo sapiens, UniProt P42336). In words: Inhibition of PI3Kalpha (unknown origin) assessed as reduction in ATP depletion using lipid substrate after 40 mins by Kinase-Glo luminescent assay.
Phosphatidylinositol 4,5-bisphosphate 3-kinase catalytic subunit alpha isoform, sequence (P42336 whole entry, canonical isoform): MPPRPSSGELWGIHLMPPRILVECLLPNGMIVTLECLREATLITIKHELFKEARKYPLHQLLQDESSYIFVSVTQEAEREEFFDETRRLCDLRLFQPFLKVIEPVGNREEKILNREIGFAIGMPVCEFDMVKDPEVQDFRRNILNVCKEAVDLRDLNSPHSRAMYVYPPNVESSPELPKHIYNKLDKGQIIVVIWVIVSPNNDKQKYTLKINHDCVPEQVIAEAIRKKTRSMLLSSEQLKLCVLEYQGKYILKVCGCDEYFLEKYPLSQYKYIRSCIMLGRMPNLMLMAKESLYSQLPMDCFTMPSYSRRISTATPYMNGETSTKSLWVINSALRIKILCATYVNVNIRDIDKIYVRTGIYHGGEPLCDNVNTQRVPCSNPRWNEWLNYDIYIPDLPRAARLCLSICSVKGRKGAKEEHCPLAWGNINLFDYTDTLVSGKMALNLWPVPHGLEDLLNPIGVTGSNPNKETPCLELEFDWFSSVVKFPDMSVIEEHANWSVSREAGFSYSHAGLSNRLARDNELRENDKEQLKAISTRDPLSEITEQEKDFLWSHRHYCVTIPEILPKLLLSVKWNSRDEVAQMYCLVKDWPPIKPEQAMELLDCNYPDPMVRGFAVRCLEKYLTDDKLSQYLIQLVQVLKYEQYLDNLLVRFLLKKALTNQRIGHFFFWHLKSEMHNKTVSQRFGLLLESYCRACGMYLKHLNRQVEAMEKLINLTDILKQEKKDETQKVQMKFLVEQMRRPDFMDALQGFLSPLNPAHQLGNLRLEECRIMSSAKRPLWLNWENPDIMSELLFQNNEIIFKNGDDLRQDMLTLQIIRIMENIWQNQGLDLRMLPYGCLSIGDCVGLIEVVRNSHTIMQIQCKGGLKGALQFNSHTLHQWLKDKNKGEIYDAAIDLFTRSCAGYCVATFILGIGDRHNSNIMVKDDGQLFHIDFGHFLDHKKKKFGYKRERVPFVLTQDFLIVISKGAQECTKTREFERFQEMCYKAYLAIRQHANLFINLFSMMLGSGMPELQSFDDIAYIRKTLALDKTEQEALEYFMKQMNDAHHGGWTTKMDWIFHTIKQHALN
The subject of data set [2] is CCRF S-180. In words: Antitumor activity against mouse S180 cells implanted in mouse assessed as tumor growth inhibition at 5 mg/kg, po qd for 8 days relative to control. Particulars: CCRF S-180, po, 192 h, read-out: TGI. The data set is classed as functional.
Data set [3] in a line: Toxicity in mouse implanted with mouse S180 cells assessed as body weight loss at 5 to 50 mg/kg, po qd for 8 days. The data set is classed as organism-based. The settings on record: in vivo, 192 h.
Data set [4] addresses Phosphatidylinositol 4,5-bisphosphate 3-kinase catalytic subunit gamma isoform (Homo sapiens, UniProt P48736). In words: Inhibition of PI3Kgamma (unknown origin) assessed as reduction in ATP depletion using lipid substrate after 40 mins by Kinase-Glo luminescent assay. Background: Kinase-Glo measures the ATP left after a reaction by luminescence.
Data set [5] addresses Phosphatidylinositol 4,5-bisphosphate 3-kinase catalytic subunit beta isoform (Homo sapiens, UniProt P42338). In words: Inhibition of PI3Kbeta (unknown origin) assessed as reduction in ATP depletion using lipid substrate after 40 mins by Kinase-Glo luminescent assay.
The target of data set [6] is T1, Phosphatidylinositol 4,5-bisphosphate 3-kinase catalytic subunit delta isoform (Homo sapiens, UniProt O00329).
T1 sequence (O00329 whole entry): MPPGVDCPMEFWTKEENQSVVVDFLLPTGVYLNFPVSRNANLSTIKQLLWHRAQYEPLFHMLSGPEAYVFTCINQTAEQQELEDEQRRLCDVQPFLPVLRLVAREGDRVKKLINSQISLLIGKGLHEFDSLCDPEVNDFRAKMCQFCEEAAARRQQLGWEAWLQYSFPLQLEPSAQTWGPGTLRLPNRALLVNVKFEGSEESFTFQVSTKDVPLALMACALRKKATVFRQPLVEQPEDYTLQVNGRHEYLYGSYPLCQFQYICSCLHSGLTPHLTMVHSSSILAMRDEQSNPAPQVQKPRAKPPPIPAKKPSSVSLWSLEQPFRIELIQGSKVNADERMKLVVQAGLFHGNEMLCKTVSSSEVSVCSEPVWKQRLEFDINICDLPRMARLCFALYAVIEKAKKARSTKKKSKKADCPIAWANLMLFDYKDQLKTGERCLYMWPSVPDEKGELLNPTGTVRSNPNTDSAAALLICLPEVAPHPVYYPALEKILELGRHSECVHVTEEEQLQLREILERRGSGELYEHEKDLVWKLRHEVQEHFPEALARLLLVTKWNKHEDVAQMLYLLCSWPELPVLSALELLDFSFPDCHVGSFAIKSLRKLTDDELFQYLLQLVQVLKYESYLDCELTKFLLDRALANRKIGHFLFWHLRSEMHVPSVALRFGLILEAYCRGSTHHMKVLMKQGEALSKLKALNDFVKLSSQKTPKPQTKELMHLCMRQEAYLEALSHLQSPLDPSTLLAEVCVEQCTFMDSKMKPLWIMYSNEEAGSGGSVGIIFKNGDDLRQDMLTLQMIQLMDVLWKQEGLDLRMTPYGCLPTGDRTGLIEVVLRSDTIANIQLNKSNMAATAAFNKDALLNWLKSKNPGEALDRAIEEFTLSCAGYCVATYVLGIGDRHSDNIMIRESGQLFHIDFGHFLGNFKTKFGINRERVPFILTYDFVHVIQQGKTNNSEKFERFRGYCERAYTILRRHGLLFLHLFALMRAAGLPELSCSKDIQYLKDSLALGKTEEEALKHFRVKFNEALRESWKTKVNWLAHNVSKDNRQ
The data set can be described thus: Inhibition of PI3Kdelta (unknown origin) assessed as reduction in ATP depletion using lipid substrate after 40 mins by Kinase-Glo luminescent assay.

Data set [7] deals with CCRF S-180. In words: Antitumor activity against mouse S180 cells implanted in mouse assessed as tumor growth inhibition at 15 mg/kg, po qd for 8 days relative to control. The settings on record: CCRF S-180, po, 192 h, read-out: TGI. The data set is classed as functional.
Data set [8] concerns CCRF S-180. The data set can be described thus: Antitumor activity against mouse S180 cells implanted in mouse assessed as tumor growth inhibition at 50 mg/kg, po qd for 8 days relative to control. The data set is classed as functional. Particulars: CCRF S-180, po, 192 h, read-out: TGI.

Phosphatidylinositol 4,5-bisphosphate 3-kinase catalytic subunit beta isoform, sequence (P42338 whole entry, canonical isoform): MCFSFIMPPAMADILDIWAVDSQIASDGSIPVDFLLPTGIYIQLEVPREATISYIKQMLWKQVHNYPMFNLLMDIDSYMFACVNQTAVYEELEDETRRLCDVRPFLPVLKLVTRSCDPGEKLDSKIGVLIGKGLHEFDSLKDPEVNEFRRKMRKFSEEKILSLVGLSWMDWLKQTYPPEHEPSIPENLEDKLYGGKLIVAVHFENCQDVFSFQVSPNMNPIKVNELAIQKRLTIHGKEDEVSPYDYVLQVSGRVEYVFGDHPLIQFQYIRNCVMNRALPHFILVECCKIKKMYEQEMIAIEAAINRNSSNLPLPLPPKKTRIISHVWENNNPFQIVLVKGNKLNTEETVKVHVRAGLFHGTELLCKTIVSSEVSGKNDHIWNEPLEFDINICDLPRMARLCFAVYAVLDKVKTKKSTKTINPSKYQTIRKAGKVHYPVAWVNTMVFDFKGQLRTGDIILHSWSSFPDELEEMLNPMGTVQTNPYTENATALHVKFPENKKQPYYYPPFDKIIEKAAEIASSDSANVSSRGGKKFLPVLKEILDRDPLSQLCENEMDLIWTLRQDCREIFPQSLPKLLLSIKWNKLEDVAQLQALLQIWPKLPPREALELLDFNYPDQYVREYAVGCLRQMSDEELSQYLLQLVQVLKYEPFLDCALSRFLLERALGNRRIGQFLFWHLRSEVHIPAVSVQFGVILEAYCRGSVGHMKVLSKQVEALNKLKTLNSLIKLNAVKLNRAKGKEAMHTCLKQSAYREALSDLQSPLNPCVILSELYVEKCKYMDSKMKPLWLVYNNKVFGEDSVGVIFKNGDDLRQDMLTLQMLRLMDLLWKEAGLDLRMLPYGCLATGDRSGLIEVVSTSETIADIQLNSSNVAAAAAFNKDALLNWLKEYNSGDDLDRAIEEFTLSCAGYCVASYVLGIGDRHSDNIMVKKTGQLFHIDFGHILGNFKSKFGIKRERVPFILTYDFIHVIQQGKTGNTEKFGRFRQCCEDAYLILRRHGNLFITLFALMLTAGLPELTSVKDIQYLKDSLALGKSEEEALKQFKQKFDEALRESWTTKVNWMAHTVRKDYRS
Phosphatidylinositol 4,5-bisphosphate 3-kinase catalytic subunit gamma isoform, sequence (P48736 whole entry, canonical isoform): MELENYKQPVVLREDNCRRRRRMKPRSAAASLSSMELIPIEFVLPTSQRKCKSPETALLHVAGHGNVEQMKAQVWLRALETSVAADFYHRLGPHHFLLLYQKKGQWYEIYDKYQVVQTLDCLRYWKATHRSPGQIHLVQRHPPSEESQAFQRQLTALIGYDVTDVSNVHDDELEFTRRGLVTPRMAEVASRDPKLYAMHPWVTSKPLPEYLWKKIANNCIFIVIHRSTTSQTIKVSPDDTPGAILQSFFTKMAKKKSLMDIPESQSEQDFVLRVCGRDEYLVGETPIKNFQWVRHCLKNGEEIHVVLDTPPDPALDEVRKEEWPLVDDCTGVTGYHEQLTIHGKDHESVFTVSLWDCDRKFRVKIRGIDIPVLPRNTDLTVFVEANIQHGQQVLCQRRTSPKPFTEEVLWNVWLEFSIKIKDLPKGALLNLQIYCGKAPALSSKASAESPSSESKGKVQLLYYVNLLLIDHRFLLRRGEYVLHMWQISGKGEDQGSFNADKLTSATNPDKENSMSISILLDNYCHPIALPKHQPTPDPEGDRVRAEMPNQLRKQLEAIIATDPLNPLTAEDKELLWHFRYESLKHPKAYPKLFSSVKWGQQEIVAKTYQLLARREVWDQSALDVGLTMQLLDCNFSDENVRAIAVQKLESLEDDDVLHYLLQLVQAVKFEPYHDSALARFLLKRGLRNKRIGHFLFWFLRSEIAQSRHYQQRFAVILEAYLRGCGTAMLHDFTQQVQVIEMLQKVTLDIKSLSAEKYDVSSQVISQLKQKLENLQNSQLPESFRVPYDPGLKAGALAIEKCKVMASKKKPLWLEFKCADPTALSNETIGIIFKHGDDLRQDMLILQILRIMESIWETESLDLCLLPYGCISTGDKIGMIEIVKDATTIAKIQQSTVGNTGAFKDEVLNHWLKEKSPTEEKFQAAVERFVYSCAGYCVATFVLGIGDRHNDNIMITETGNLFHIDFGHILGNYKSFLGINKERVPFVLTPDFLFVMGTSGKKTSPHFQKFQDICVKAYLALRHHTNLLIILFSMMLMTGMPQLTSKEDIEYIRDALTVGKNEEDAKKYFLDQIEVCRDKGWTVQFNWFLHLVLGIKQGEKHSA

As for `COc1ncc(-c2ccc3ncnc(NCCN4CCOCC4)c3c2)cc1[N+](=O)[O-]`, the 50% inhibitory concentration (IC50) (in general, the midpoint of a concentration-inhibition curve) is 1.8 µM in the data set with HCT-116 and 2.87 µM in the data set on MCF7.

Turning to `COc1ccc(-c2ccc3ncnc(NCCN(C)C)c3c2)cn1`, the IC50 with HCT-116 is 15.8 µM; in the data set with MCF7 it was 2.97 µM.

Regarding `COc1ccc(-c2ccc3ncnc(NCCN4CCCCC4)c3c2)cc1C(N)=O`, the values for the IC50 in the data set with HCT-116 and with MCF7 were 29.4 µM and 39.1 µM, respectively.

`COc1ncc(-c2ccc3ncnc(NCCN4CCCC4)c3c2)cc1C#N`: the values for the IC50 in the data set on HCT-116 and in the data set on MCF7 were 2.35 µM and 6.22 µM, respectively.

Turning to `COc1ncc(-c2ccc3ncnc(OCCN(C)C)c3c2)cc1[N+](=O)[O-]`, the IC50 in the data set on HCT-116 came out at 9.38 µM; with MCF7 it was 7.26 µM.

In the case of `CCN(CC)CCNc1ncnc2ccc(-c3cnc(OC)c(C#N)c3)cc12`, the results for the IC50 with HCT-116 and with MCF7 were 2.05 µM and 3.86 µM, respectively.

Take `COc1ncc(-c2ccc3ncnc(NCCN4CCCCC4)c3c2)cc1[N+](=O)[O-]`: the IC50 in the data set with HCT-116 stood at 0.65 µM; in the data set on MCF7 it was 8.61 µM; in [1], 3.17 µM.

For `CCN(CC)CCNc1ncnc2ccc(-c3cnc(OC)c([N+](=O)[O-])c3)cc12`, the 50% inhibitory concentration (IC50) amounted to 7.33 µM with HCT-116 and 16.3 µM with MCF7.

With `COc1ccc(-c2ccc3ncnc(NCCN4CCCCC4)c3c2)cn1`, the IC50 amounted to 22.2 µM in the data set with HCT-116 and 2.42 µM in the data set with MCF7.

On to `COc1ccc(-c2ccc3ncnc(NCCN4CCOCC4)c3c2)cn1`, for which the figures for the half-maximal inhibitory concentration (IC50) in the data set on HCT-116 and in the data set on MCF7 were 38.6 µM and 34.3 µM, respectively.

With `COc1ccc(-c2ccc3ncnc(NCCN4CCOCC4)c3c2)cc1C(N)=O`, the half-maximal inhibitory concentration (IC50) in the data set on HCT-116 was 24.4 µM; with MCF7, 29.3 µM.

Turning to `COc1ccc(-c2ccc3ncnc(NCCN4CCCC4)c3c2)cn1`, the IC50 in the data set with HCT-116 stood at 3.91 µM; with MCF7, 10.1 µM.

Turning to `COc1ncc(-c2ccc3ncnc(NCCN(C)C)c3c2)cc1C#N`, the half-maximal inhibitory concentration (IC50) was found to be 0.56 µM in the data set on HCT-116, 3.23 µM in the data set with MCF7 and 3.01 µM in [1].

Consider `COc1ncc(-c2ccc3ncnc(NCCN4CCOCC4)c3c2)cc1C#N`, for which the IC50 is 0.51 µM in the data set with HCT-116; 2.1 µM in the data set on MCF7; 0.934 µM in data set [4]; 0.465 µM in [1]; 0.3 µM in data set [5]; 0.037 µM in [6]. Also, in the data set with CCRF S-180 [2], the inhibition in vivo at 5 mg/kg was determined as 33%. Moreover, the Activity entry in data set [3] is listed as “Non-Toxic”. Further, the inhibition in vivo at 15 mg/kg with CCRF S-180 [7] is 49%. Also, the inhibition in vivo at 50 mg/kg with CCRF S-180 [8] turned out to be 68.4%.

In the case of `CCN(CC)CCNc1ncnc2ccc(-c3ccc(OC)nc3)cc12`, the 50% inhibitory concentration (IC50) came to 9.56 µM with HCT-116 and 8.74 µM in the data set with MCF7.

On to `COc1ncc(-c2ccc3ncnc(OCCN(C)C)c3c2)cc1C#N`, for which the IC50 came out at 5.16 µM with HCT-116 and 6.68 µM in the data set on MCF7.

Turning to `COc1ncc(-c2ccc3ncnc(NCCN4CCCCC4)c3c2)cc1C#N`, the figures for the IC50 with HCT-116 and with MCF7 were 2.68 µM and 2.74 µM, respectively.

The values above are taken from ChEMBL document CHEMBL4477271, “Synthesis and antitumor activity evaluation of 4,6-disubstituted quinazoline derivatives as novel PI3K inhibitors” (Bioorg Med Chem Lett, 2016).
